Key:
Assay in all cases: relative viability (nuclei count vs DMSO), 5 days (fraction); higher = more cells survive
XMD13-2 + Linsitinib = compound: C1CC1C(=O)NC2=NNC3=C2C=CC(=C3)C4=CC(=CC=C4)C(=O)NC5CC5 [XMD13-2] + C[C@]1(O)C[C@@H](c2nc(-c3ccc4ccc(-c5ccccc5)nc4c3)c3c(N)nccn32)C1 [Linsitinib] (partner 1 µM)
Method in brief: (§1)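 Relative viability equals treated-well nuclei counts divided by vehicle-well nuclei counts. Counts came from 4× images of lung cancer cell lines grown in 1536-well plates for 5 days after pin-tool dosing on the day after seeding. Dosing used one drug alone or a fixed anchor-drug dose plus five library-drug doses (not always all listed) in √10 steps, and values are medians of duplicate plates.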

ALW-II-49-7 + Linsitinib = compound: Cc1ccc(C(=O)Nc2cccc(C(F)(F)F)c2)cc1Nc1cncc(C(N)=O)c1 [ALW-II-49-7] + C[C@]1(O)C[C@@H](c2nc(-c3ccc4ccc(-c5ccccc5)nc4c3)c3c(N)nccn32)C1 [Linsitinib] (partner 1 µM)
Method in brief: as §1

ALW-II-49-7 + Vorinostat = compound: Cc1ccc(C(=O)Nc2cccc(C(F)(F)F)c2)cc1Nc1cncc(C(N)=O)c1 [ALW-II-49-7] + O=C(CCCCCCC(=O)Nc1ccccc1)NO [Vorinostat] (partner 1 µM)
Method in brief: as §1

ALW-II-49-7 + Olaparib = compound: Cc1ccc(C(=O)Nc2cccc(C(F)(F)F)c2)cc1Nc1cncc(C(N)=O)c1 [ALW-II-49-7] + O=C(c1cc(Cc2n[nH]c(=O)c3ccccc23)ccc1F)N1CCN(C(=O)C2CC2)CC1 [Olaparib] (partner 8 µM)
Method in brief: as §1

Row | Cell Line | relative viability (XMD13-2 + Linsitinib; first compound 0.05 µM) | relative viability (XMD13-2 + Linsitinib; first compound 0.1581 µM) | relative viability (XMD13-2 + Linsitinib; first compound 0.5 µM) | relative viability (XMD13-2 + Linsitinib; first compound 1.581 µM) | relative viability (XMD13-2 + Linsitinib; first compound 5 µM) | relative viability (ALW-II-49-7 + Linsitinib; first compound 0.08 µM) | relative viability (ALW-II-49-7 + Linsitinib; first compound 0.253 µM) | relative viability (ALW-II-49-7 + Linsitinib; first compound 0.8 µM) | relative viability (ALW-II-49-7 + Linsitinib; first compound 2.53 µM) | relative viability (ALW-II-49-7 + Linsitinib; first compound 8 µM) | relative viability (ALW-II-49-7 + Vorinostat; first compound 0.08 µM) | relative viability (ALW-II-49-7 + Vorinostat; first compound 0.253 µM) | relative viability (ALW-II-49-7 + Vorinostat; first compound 0.8 µM) | relative viability (ALW-II-49-7 + Vorinostat; first compound 2.53 µM) | relative viability (ALW-II-49-7 + Vorinostat; first compound 8 µM) | relative viability (ALW-II-49-7 + Olaparib; first compound 0.08 µM) | relative viability (ALW-II-49-7 + Olaparib; first compound 0.253 µM) | relative viability (ALW-II-49-7 + Olaparib; first compound 0.8 µM) | relative viability (ALW-II-49-7 + Olaparib; first compound 2.53 µM) | relative viability (ALW-II-49-7 + Olaparib; first compound 8 µM)
1 | NCI-H2009 | 1.19 | 1.19 | 1.13 | 1.2 | 1.16 | 1.21 | 1.12 | 1.09 | 1.02 | 1 | 0.749 | 0.838 | 0.731 | 0.695 | 0.657 | 0.601 | 0.654 | 0.665 | 0.422 | 0.428
2 | NCI-H2023 | 0.697 | 0.684 | 0.572 | 0.649 | 0.854 | 0.653 | 0.579 | 0.697 | 0.679 | 0.645 | 0.683 | 0.688 | 0.434 | 0.64 | 0.625 | 0.458 | 0.543 | 0.649 | 0.451 | 0.424
3 | NCI-H2085 | 0.894 | 0.819 | 0.873 | 0.984 | 0.963 | 0.669 | 0.866 | 0.843 | 0.84 | 0.942 | 0.787 | 0.899 | 0.718 | 0.817 | 0.702 | 0.701 | 0.776 | 0.756 | 0.844 | 0.763
4 | NCI-H2087 | 0.922 | 0.991 | 0.869 | 0.811 | 0.784 | 1.14 | 0.962 | 0.871 | 0.896 | 0.919 | 0.687 | 0.597 | 0.662 | 0.508 | 0.38 | 0.583 | 0.569 | 0.463 | 0.578 | 0.514
5 | NCI-H2126 | 0.697 | 0.693 | 0.755 | 0.662 | 0.703 | 0.656 | 0.733 | 0.746 | 0.7 | 0.717 | 0.8 | 0.877 | 0.778 | 0.71 | 0.707 | 0.823 | 0.882 | 0.979 | 0.891 | 0.87
6 | NCI-H2228 | 0.735 | 0.83 | 0.768 | 0.546 | 0.622 | 1.17 | 0.677 | 0.8 | 0.644 | 0.611 | 0.534 | 0.414 | 0.513 | 0.674 | 0.49 | 0.683 | 0.879 | 0.606 | 0.531 | 0.57
7 | NCI-H2347 | 0.973 | 0.951 | 0.973 | 0.924 | 0.972 | 1 | 0.974 | 1.08 | 0.868 | 0.737 | 0.519 | 0.5 | 0.653 | 0.49 | 0.559 | 0.596 | 0.568 | 0.562 | 0.545 | 0.556
8 | NCI-H2405 | 0.936 | 0.975 | 0.958 | 0.939 | 1.03 | 0.892 | 1.01 | 0.958 | 0.376 | 0.9 | 1.08 | 1.14 | 0.968 | 0.905 | 0.789 | 0.856 | 0.97 | 0.86 | 0.811 | 0.785
9 | NCI-H3122 | 1.02 | 1.01 | 1.04 | 1.06 | 0.951 | 1.02 | 0.934 | 1.1 | 1.18 | 1.13 | 1.06 | 0.907 | 0.854 | 1.15 | 0.987 | 0.636 | 0.657 | 0.642 | 0.705 | 0.537
10 | PC-3 [JPC-3] | 0.915 | 0.961 | 1.01 | 0.906 | 1.01 | 1.01 | 0.914 | 0.935 | 0.995 | 0.952 | 0.833 | 0.822 | 0.678 | 0.846 | 0.742 | 0.693 | 1.2 | 1.24 | 1.05 | 1
11 | PC-14 | 0.986 | 1.04 | 0.958 | 0.878 | 0.927 | 0.933 | 0.821 | 0.933 | 0.979 | 0.94 | 0.474 | 0.544 | 0.668 | 0.562 | 0.588 | 0.282 | 0.227 | 0.264 | 0.253 | 0.273
12 | RERF-LC-KJ | 0.916 | 0.89 | 0.947 | 0.817 | 0.871 | 0.884 | 0.898 | 0.873 | 0.905 | 0.888 | 0.646 | 0.731 | 0.653 | 0.755 | 0.646 | 0.988 | 1.06 | 0.874 | 0.856 | 0.725
13 | SK-LU-1 | 1.1 | 1.19 | 1.45 | 0.929 | 1.14 | 1.03 | 1.22 | 1.19 | 0.953 | 0.793 | 0.754 | 0.64 | 0.551 | 0.628 | 0.493 | 0.543 | 0.49 | 0.451 | – | 0.362
14 | SK-MES-1 | 1.11 | 1.03 | 1.01 | 1.01 | 1.16 | 1.03 | 1.14 | 1.13 | 0.952 | 0.901 | 1.14 | 1.16 | 1.05 | 1.04 | 0.938 | 0.548 | 0.815 | 0.746 | 0.527 | 0.418
15 | SW 1573 | 0.82 | 0.745 | 0.849 | 0.71 | 0.577 | 0.867 | 0.906 | 0.903 | 0.795 | 0.768 | 0.612 | 0.663 | 0.652 | 0.648 | 0.567 | 0.508 | 0.561 | 0.469 | 0.505 | 0.349
